From PubChem BioAssay (NCI)
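Each compound was tested at five concentrations against cells in 96-well plates for 48 hours. TGI marks complete inhibition of growth.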

Key:
Experiment in all cases: NCI tumour cell line growth inhibition, 48 h
LOX IMVI melanoma = test system: LOX IMVI melanoma
SF-268 CNS = test system: SF-268 CNS
IGROV1 ovarian = test system: IGROV1 ovarian
TK-10 renal = test system: TK-10 renal
SNB-75 CNS = test system: SNB-75 CNS
NCI-H460 lung = test system: NCI-H460 lung
K-562 leukemia = test system: K-562 leukemia
SN12C renal = test system: SN12C renal
NCI-H522 lung = test system: NCI-H522 lung
CCRF-CEM leukemia = test system: CCRF-CEM leukemia
SK-MEL-28 melanoma = test system: SK-MEL-28 melanoma
EKVX NSCLC = test system: EKVX NSCLC
COLO 205 colon = test system: COLO 205 colon
HS 578T breast = test system: HS 578T breast
SK-MEL-5 melanoma = test system: SK-MEL-5 melanoma
A498 renal = test system: A498 renal
SR leukemia = test system: SR leukemia
PC-3 prostate = test system: PC-3 prostate
CAKI-1 renal = test system: CAKI-1 renal
RPMI-8226 leukemia = test system: RPMI-8226 leukemia
SW-620 colon = test system: SW-620 colon
HCT-15 colon = test system: HCT-15 colon
MDA-N = test system: MDA-N
OVCAR-8 ovarian = test system: OVCAR-8 ovarian
SK-OV-3 ovarian = test system: SK-OV-3 ovarian
M14 melanoma = test system: M14 melanoma
MOLT-4 leukemia = test system: MOLT-4 leukemia
UACC-257 melanoma = test system: UACC-257 melanoma
NCI-H226 lung = test system: NCI-H226 lung
HCC-2998 colon = test system: HCC-2998 colon
A549 NSCLC = test system: A549 NSCLC
HL-60(TB) leukemia = test system: HL-60(TB) leukemia
UO-31 renal = test system: UO-31 renal
HT29 colon = test system: HT29 colon
NCI/ADR-RES ovarian = test system: NCI/ADR-RES ovarian
SK-MEL-2 melanoma = test system: SK-MEL-2 melanoma
HCT-116 colon = test system: HCT-116 colon
BT-549 breast = test system: BT-549 breast
KM12 colon = test system: KM12 colon
MDA-MB-231 breast = test system: MDA-MB-231 breast
SF-539 CNS = test system: SF-539 CNS
T-47D breast = test system: T-47D breast
NCI-H23 lung = test system: NCI-H23 lung
OVCAR-4 ovarian = test system: OVCAR-4 ovarian
MALME-3M melanoma = test system: MALME-3M melanoma
OVCAR-3 ovarian = test system: OVCAR-3 ovarian
DU-145 prostate = test system: DU-145 prostate
U251 CNS = test system: U251 CNS
SNB-19 CNS = test system: SNB-19 CNS
UACC-62 melanoma = test system: UACC-62 melanoma
786-0 renal = test system: 786-0 renal
OVCAR-5 ovarian = test system: OVCAR-5 ovarian
MDA-MB-435 = test system: MDA-MB-435
RXF 393 renal = test system: RXF 393 renal
HOP-92 NSCLC = test system: HOP-92 NSCLC
SF-295 CNS = test system: SF-295 CNS
ACHN renal = test system: ACHN renal
MCF7 breast = test system: MCF7 breast
HOP-62 NSCLC = test system: HOP-62 NSCLC

CSC1=C(C#N)C(=S)N=C(N)C1C(=O)Nc1ccc(C)cc1 (stereo not drawn)
TGI (LOX IMVI melanoma): > 100 µM | TGI (SF-268 CNS): > 100 µM | TGI (IGROV1 ovarian): > 100 µM | TGI (TK-10 renal): > 100 µM | TGI (SNB-75 CNS): > 100 µM | TGI (NCI-H460 lung): > 100 µM | TGI (K-562 leukemia): > 100 µM | TGI (SN12C renal): > 100 µM | TGI (NCI-H522 lung): 94.8 µM | TGI (CCRF-CEM leukemia): > 100 µM | TGI (SK-MEL-28 melanoma): > 100 µM | TGI (EKVX NSCLC): > 100 µM | TGI (COLO 205 colon): > 100 µM | TGI (HS 578T breast): > 100 µM | TGI (SK-MEL-5 melanoma): > 100 µM | TGI (A498 renal): > 100 µM | TGI (SR leukemia): > 100 µM | TGI (PC-3 prostate): > 100 µM | TGI (CAKI-1 renal): > 100 µM | TGI (RPMI-8226 leukemia): > 100 µM | TGI (SW-620 colon): > 100 µM | TGI (HCT-15 colon): > 100 µM | TGI (MDA-N): > 100 µM | TGI (OVCAR-8 ovarian): > 100 µM | TGI (SK-OV-3 ovarian): > 100 µM | TGI (M14 melanoma): > 100 µM | TGI (MOLT-4 leukemia): > 100 µM | TGI (UACC-257 melanoma): > 100 µM | TGI (NCI-H226 lung): > 100 µM | TGI (HCC-2998 colon): > 100 µM | TGI (A549 NSCLC): > 100 µM | TGI (HL-60(TB) leukemia): > 100 µM | TGI (UO-31 renal): > 100 µM | TGI (HT29 colon): > 100 µM | TGI (NCI/ADR-RES ovarian): > 100 µM | TGI (SK-MEL-2 melanoma): > 100 µM | TGI (HCT-116 colon): > 100 µM | TGI (BT-549 breast): > 100 µM | TGI (KM12 colon): > 100 µM | TGI (MDA-MB-231 breast): > 100 µM | TGI (SF-539 CNS): > 100 µM | TGI (T-47D breast): > 100 µM | TGI (NCI-H23 lung): > 100 µM | TGI (OVCAR-4 ovarian): > 100 µM | TGI (MALME-3M melanoma): > 100 µM | TGI (OVCAR-3 ovarian): > 100 µM | TGI (DU-145 prostate): > 100 µM | TGI (U251 CNS): > 100 µM | TGI (SNB-19 CNS): > 100 µM | TGI (UACC-62 melanoma): > 100 µM | TGI (786-0 renal): > 100 µM | TGI (OVCAR-5 ovarian): > 100 µM | TGI (MDA-MB-435): > 100 µM | TGI (RXF 393 renal): > 100 µM

CCCCS(=O)(=O)CCC(N)P(=O)(O)O (stereo not drawn)
TGI (LOX IMVI melanoma): > 100 µM | TGI (SF-268 CNS): > 100 µM | TGI (IGROV1 ovarian): > 100 µM | TGI (TK-10 renal): > 100 µM | TGI (SNB-75 CNS): > 100 µM | TGI (NCI-H460 lung): > 100 µM | TGI (K-562 leukemia): > 100 µM | TGI (SN12C renal): > 100 µM | TGI (NCI-H522 lung): > 100 µM | TGI (CCRF-CEM leukemia): > 100 µM | TGI (SK-MEL-28 melanoma): > 100 µM | TGI (EKVX NSCLC): > 100 µM | TGI (COLO 205 colon): > 100 µM | TGI (HS 578T breast): > 100 µM | TGI (SK-MEL-5 melanoma): > 100 µM | TGI (HOP-92 NSCLC): > 100 µM | TGI (SR leukemia): > 100 µM | TGI (PC-3 prostate): > 100 µM | TGI (CAKI-1 renal): > 100 µM | TGI (RPMI-8226 leukemia): > 100 µM | TGI (SW-620 colon): > 100 µM | TGI (SF-295 CNS): > 100 µM | TGI (HCT-15 colon): > 100 µM | TGI (MDA-N): > 100 µM | TGI (ACHN renal): > 100 µM | TGI (OVCAR-8 ovarian): > 100 µM | TGI (SK-OV-3 ovarian): > 100 µM | TGI (M14 melanoma): > 100 µM | TGI (MOLT-4 leukemia): > 100 µM | TGI (UACC-257 melanoma): > 100 µM | TGI (NCI-H226 lung): > 100 µM | TGI (A549 NSCLC): > 100 µM | TGI (HL-60(TB) leukemia): > 100 µM | TGI (UO-31 renal): > 100 µM | TGI (HT29 colon): > 100 µM | TGI (NCI/ADR-RES ovarian): > 100 µM | TGI (SK-MEL-2 melanoma): > 100 µM | TGI (HCT-116 colon): > 100 µM | TGI (BT-549 breast): > 100 µM | TGI (KM12 colon): > 100 µM | TGI (T-47D breast): > 100 µM | TGI (NCI-H23 lung): > 100 µM | TGI (OVCAR-4 ovarian): > 100 µM | TGI (MALME-3M melanoma): > 100 µM | TGI (OVCAR-3 ovarian): > 100 µM | TGI (DU-145 prostate): > 100 µM | TGI (U251 CNS): > 100 µM | TGI (SNB-19 CNS): > 100 µM | TGI (UACC-62 melanoma): > 100 µM | TGI (786-0 renal): > 100 µM | TGI (MCF7 breast): > 100 µM | TGI (OVCAR-5 ovarian): > 100 µM | TGI (MDA-MB-435): > 100 µM | TGI (HOP-62 NSCLC): > 100 µM
